Laboratory results taken from patent US12441727B2, “Tricyclic compounds as inhibitors of KRAS” (Incyte Corporation, priority 2021, dated 2025).

Experiments:
KRAS G12C = KRAS G12C (Homo sapiens, UniProt P01116, G12C); assay: GDP-GTP exchange assay (KRAS_G12C exchange assay); type: biochemical; conditions: bodipy-loaded KRAS G12C 2.5 nM, SOS1 150 nM, 2 hours pre-incubation with inhibitor; read-out: G12C_exchange
Summary of the method: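 Bodipy-GDP-loaded KRAS G12C (2.5 nM final) preincubated 2 hours with compound in 25 mM Hepes pH 7.5, 50 mM NaCl, 10 mM MgCl2, 0.01% Brij-35; exchange started with 500 uM GppNHp and 150 nM SOS1, run 2 hours at ambient temperature. Fluorescence read at 485/520 nm; IC50 by four-parameter logistic fit.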

KRAS_G12C pERK = assay: Cellular pERK HTRF assay (KRAS_G12C pERK assay); type: cell-based, human; conditions: Homo sapiens, 4 h, KRAS G12C cells, 4 hours incubation with compound; read-out: G12C_pERK
Summary of the method: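 KRAS-mutant (G12C, G12D, G12V) and KRAS WT cancer cell lines, plated overnight in RPMI/10% FBS, were treated with compound (0.1% DMSO) at 37 °C for 4 h (G12C, G12V) or 2 h (G12D). Lysates were probed with anti-phospho-ERK1/2 HTRF antibody pair read at 665/620 nm; IC50 fitted.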

[1] = test system: KRAS_G12C pERK in MIA PaCa-2 cells; assay: Whole Blood pERK1/2 HTRF assay (KRAS_G12C WB pERK assay); type: cell-based, human; conditions: Homo sapiens, compound in whole blood, 4 hours, read-out: G12C_WB_pERK
Summary of the method: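 MIA PaCa-2 (KRAS G12C) cells were grown 2 days, then exposed for 4 h at 37 °C to compound spiked into whole blood (0.5% DMSO). After PBS washes and lysis, phospho-ERK1/2 was read by HTRF at 665/620 nm, and the IC50 came from a curve fit.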

[2] = Human whole blood stability; type: in vitro ADME; conditions: percent remaining at 4 hr, 1 μM, 37° C.
Procedure: The whole blood stability of the exemplified compounds was determined by LC-MS/MS. The 96-Well Flexi-Tier™ Block (Analytical Sales & Services, Inc, Flanders, NJ) is used for the incubation plate containing 1.0 mL glass vials with 0.5 mL of blood per vial (pooled gender, human whole blood sourced from BIOIVT, Hicksville, NY or similar). Blood is pre-warmed in water bath to 37° C. for 30 minutes. 96-deep well analysis plate is prepared with the addition of 100 μL ultrapure water/well. 50 μL chilled ultrapure water/well is added to 96-deep well sample collection plate and covered with a sealing mat. 1 μL of 0.5 mM compound working solution (DMSO:water) is added to the blood in incubation plate to reach final concentrations of 1 μM, mixed by pipetting thoroughly and 50 μL is transferred 50 into the T=0 wells of the sample collection plate. Blood is allowed to sit in the water for 2 minutes and then 400 μL stop solution/well is added (acetonitrile containing an internal standard). The incubation plate is placed in the Incu-Shaker CO2 Mini incubator (Benchmark Scientific, Sayreville, NJ) at 37° C. with shaking at 150 rpm. At 1, 2 and 4-hr, the blood samples are mixed thoroughly by pipetting and 50 μL is transferred into the corresponding wells of the sample collection plate. Blood is allowed to sit in the water for 2 minutes and then 400 μL of stop solution/well is added. The collection plate is sealed and vortexed at 1700 rpm for 3 minutes (VX-2500 Multi-Tube Vortexer, VWR International, Radnor, PA), and samples are then centrifuged in the collection plate at 3500 rpm for 10 minutes (Allegra X-14R Centrifuge Beckman Coulter, Indianapolis, IN). 100 μL of supernatant/well is transferred from the sample collection plate into the corresponding wells of the analysis plate. The final plate is vortexed at 1700 rpm for 1 minute and analyze samples by LC-MS/MS. The peak area ratio of the 1, 2, and 4 hr samples relative to T=0 is used to determine the percent remaining. The natural log of the percent remaining versus time is used determine a slope to calculate the compounds half-life in blood (t1/2=0.693/slope).

Sequence of KRAS G12C (P01116 1-188 isoform P01116-2 G12C): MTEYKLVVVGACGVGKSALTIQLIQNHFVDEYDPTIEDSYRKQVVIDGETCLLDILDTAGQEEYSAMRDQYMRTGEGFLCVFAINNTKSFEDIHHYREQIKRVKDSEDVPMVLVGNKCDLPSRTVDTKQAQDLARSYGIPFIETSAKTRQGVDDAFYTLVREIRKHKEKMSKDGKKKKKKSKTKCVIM

Row | SMILES | IC50 (KRAS G12C) | IC50 (KRAS_G12C pERK) | IC50 [1] | Human whole blood stability at 4 hr [2]
1 | C=C(F)C(=O)N1CC[C@H](n2nnc3c(N4CC(C)(N(C)CC)C4)nc4c(F)c(-c5c(C)c(C)cc6[nH]ncc56)c(C)cc4c32)C[C@H]1CC#N (single isomer, unassigned) [Example 30] | ≤ 50 nM | ≤ 50 nM | 50 to 100 nM | ††† (WBS >90%)
2 | C=CC(=O)N1CC[C@H](n2nnc3c(O[C@@H](C)[C@@H]4CCCN4C)nc4c(F)c(-c5cccc6c5c(CC#N)cn6C)c(C)cc4c32)C[C@H]1C (single isomer, unassigned) [Example 31b] | ≤ 50 nM | ≤ 50 nM | 50 to 100 nM | †† (WBS >70% but ≤90%)
3 | C=CC(=O)N1CCC(n2nnc3c(O[C@@H](C)[C@@H]4CCCN4C)nc4c(F)c(-c5cccc6c5c(CC#N)cn6C)c(C)cc4c32)CC1 (single isomer, unassigned) [Example 32b] | ≤ 50 nM | ≤ 50 nM | ≤ 50 nM | †† (WBS >70% but ≤90%)
4 | C=C(F)C(=O)N1CC[C@H](n2nnc3c(N4CC(C)(N(C)CC)C4)nc4c(F)c(-c5c(C)c(C)cc6[nH]ncc56)c(Cl)cc4c32)C[C@H]1CC#N (single isomer, unassigned) [Example 33a] | ≤ 50 nM | ≤ 50 nM | 50 to 100 nM | †† (WBS >70% but ≤90%)
5 | C=C(F)C(=O)N1CC[C@H](n2nnc3c(N4CC(C)(N(C)CC)C4)nc4c(F)c(-c5c(C)c(F)cc6[nH]ncc56)c(Cl)cc4c32)C[C@H]1CC#N (single isomer, unassigned) [Example 35a] | ≤ 50 nM | ≤ 50 nM | 50 to 100 nM | ††† (WBS >90%)
6 | Cc1cc2c(nc(O[C@@H](C)[C@@H]3CCCN3C)c3nnn([C@H]4CCN(C(=O)/C=C/CF)[C@H](CC#N)C4)c32)c(F)c1-c1ccc2cnn(C)c2c1 [Example 7, 2-((2S,4S)-4-(6-fluoro-8-methyl-7-(1-methyl-1H-indazol-6-yl)-4-((S)-1-((S)-1-methylpyrrolidin-2-yl)ethoxy)-1H-[1,2,3]triazolo[4,5-c]quinolin-1-yl)-1-((E)-4-fluorobut-2-enoyl)piperidin-2-yl)acetonitrile] | ≤ 50 nM | ≤ 50 nM | ≤ 50 nM | ††† (WBS >90%)
7 | Cc1ccc(-c2c(C)cc3c(nc(O[C@@H](C)[C@@H]4CCCN4C)c4nnn([C@H]5CCN(C(=O)/C=C/CF)[C@H](CC#N)C5)c43)c2F)cn1 [Example 8, 2-((2S,4S)-4-(6-fluoro-8-methyl-7-(6-methylpyridin-3-yl)-4-((S)-1-((S)-1-methylpyrrolidin-2-yl)ethoxy)-1H-[1,2,3]triazolo[4,5-c]quinolin-1-yl)-1-((E)-4-fluorobut-2-enoyl)piperidin-2-yl)acetonitrile] | ≤ 50 nM | ≤ 50 nM | ≤ 50 nM | †† (WBS >70% but ≤90%)
8 | COC/C=C/C(=O)N1CC[C@H](n2nnc3c(O[C@@H](C)[C@@H]4CCCN4C)nc4c(F)c(-c5ccc(F)cc5)c(C)cc4c32)C[C@H]1CC#N [Example 10, 2-((2S,4S)-4-(6-fluoro-7-(4-fluorophenyl)-8-methyl-4-((S)-1-((S)-1-methylpyrrolidin-2-yl)ethoxy)-1H-[1,2,3]triazolo[4,5-c]quinolin-1-yl)-1-((E)-4-methoxybut-2-enoyl)piperidin-2-yl)acetonitrile] | ≤ 50 nM | ≤ 50 nM | ≤ 50 nM | ††† (WBS >90%)
9 | Cc1cccc(-c2c(C)cc3c(nc(N4CC(C)(N(C)C)C4)c4ncn([C@H]5CCN(C(=O)/C=C/CF)[C@H](CC#N)C5)c43)c2F)c1Cl [Example 12, 2-((2S,4S)-4-(7-(2-chloro-3-methylphenyl)-4-(3-(dimethylamino)-3-methylazetidin-1-yl)-6-fluoro-8-methyl-1H-imidazo[4,5-c]quinolin-1-yl)-1-((E)-4-fluorobut-2-enoyl)piperidin-2-yl)acetonitrile] | ≤ 50 nM | ≤ 50 nM | ≤ 50 nM | ††† (WBS >90%)
10 | C=C(F)C(=O)N1CC[C@H](n2cnc3c(O[C@@H](C)[C@@H]4CCCN4C)nc4c(F)c(-c5cccc(C)c5Cl)c(C)cc4c32)C[C@H]1CC#N [Example 13, 2-((2S,4S)-4-(7-(2-chloro-3-methylphenyl)-6-fluoro-8-methyl-4-((S)-1-((S)-1-methylpyrrolidin-2-yl)ethoxy)-1H-imidazo[4,5-c]quinolin-1-yl)-1-(2-fluoroacryloyl)piperidin-2-yl)acetonitrile] | ≤ 50 nM | ≤ 50 nM | 100 to 1000 nM | †† (WBS >70% but ≤90%)
11 | COC/C=C/C(=O)N1CC[C@H](n2nnc3c(O[C@@H](C)[C@@H]4CCCN4C)nc4c(F)c(-c5ncc(F)c6ccccc56)c(C)cc4c32)C[C@H]1CC#N [Example 21, 2-((2S,4S)-4-(6-fluoro-7-(4-fluoroisoquinolin-1-yl)-8-methyl-4-((S)-1-((S)-1-methylpyrrolidin-2-yl)ethoxy)-1H-[1,2,3]triazolo[4,5-c]quinolin-1-yl)-1-((E)-4-methoxybut-2-enoyl)piperidin-2-yl)acetonitrile] | ≤ 50 nM | ≤ 50 nM | ≤ 50 nM | ††† (WBS >90%)
